Measured values published in US10793579B2, “Bicyclic-fused heteroaryl or aryl compounds” (Pfizer Inc., priority 2014, dated 2020).
Read-outs that look alike come from different tables or passages of the source.

Experiments:
[1] = system: R848-induced TNFα production by human peripheral blood mononuclear cells (PBMCs); experiment: R848 Induced TNFα in Human PBMC Assay; assay type: cell-based
Description: R848 Induced TNFα in Human PBMC Assay.
This protocol is for R848-induced TNFα production by human peripheral blood mononuclear cells (PBMCs). […] The assay is used to assess cell-based potency of small molecule inhibitors of IRAK4 in the absence of serum.
The PBMCs in the interphase layer were collected and washed with PBS via centrifugation multiple times until the supernatant is clear. The purified PBMCs were re-suspended in RPMI (Roswell Park Memorial Institute) media (Sigma-Aldrich).
For the assay, a compound dilution plate containing a top concentration of 4 mM compound in DMSO was serially diluted 4-fold for 11 times. 250 nL of the compound dilution plate was spotted into a 384-well, flat bottom with IId, TC-treated, black with clear bottom, sterile, polystyrene plate (Corning Life Sciences).
10 μL of anti-TNFα antibody labeled with MSD SULFO-TAG at 50 μg/mL was added to each well and allowed to incubate overnight at 4° C. […] The plates were then imaged on an MSD Sector Imager 6000.

[2] = system: collagen-induced arthritis (hind paw volume); experiment: In Vivo Rat Collagen-Induced Arthritis Model; settings: Lewis rat
Experimental: In Vivo Rat Collagen-Induced Arthritis Model.
Efficacy of IRAK4 compounds of the present invention was also evaluated in a rat in vivo model of rheumatoid arthritis (M. Hegen, J. C. Keith, Jr, M. Collins, C. L. Nickerson-Nutter, Ann. Rheum. Dis. 2008, 67, 1505-1515). An exemplary protocol for this in vivo model follows.
Female Lewis rats, approximately 7 weeks old, were immunized with an emulsion of type II collagen (CII) and incomplete Freund's adjuvant (IFA) on day 0 and received a boost of CII/IFA on day 7. Hind paw volume increase was taken by plethysmograph. Animals were randomly enrolled into treatment groups based on the development of disease. Beginning on day 11 post immunization, rats were enrolled into random treatment groups based on an increase in a single hind paw volume compared to day 7 post immunization baseline measurements.
Ten rats were enrolled per treatment group with the exception of the naive control group, which contained two rats. Day 0 was designated as the first treatment day, and paw measurements are taken daily by plethysmograph. The rats were weighed on a daily basis.
IRAK4 inhibitors are efficacious in the Lewis rat model of collagen-induced arthritis.

[3] = target: human IRAK4 FL (Full Length) (Homo sapiens (Human), UniProt Q9NWZ3); experiment: IRAK4 Enzymatic DELFIA Assay, Protocol A; assay type: biochemical; settings: 0.6 mM ATP
Sequence of human IRAK4 FL (Full Length) (Q9NWZ3 whole entry): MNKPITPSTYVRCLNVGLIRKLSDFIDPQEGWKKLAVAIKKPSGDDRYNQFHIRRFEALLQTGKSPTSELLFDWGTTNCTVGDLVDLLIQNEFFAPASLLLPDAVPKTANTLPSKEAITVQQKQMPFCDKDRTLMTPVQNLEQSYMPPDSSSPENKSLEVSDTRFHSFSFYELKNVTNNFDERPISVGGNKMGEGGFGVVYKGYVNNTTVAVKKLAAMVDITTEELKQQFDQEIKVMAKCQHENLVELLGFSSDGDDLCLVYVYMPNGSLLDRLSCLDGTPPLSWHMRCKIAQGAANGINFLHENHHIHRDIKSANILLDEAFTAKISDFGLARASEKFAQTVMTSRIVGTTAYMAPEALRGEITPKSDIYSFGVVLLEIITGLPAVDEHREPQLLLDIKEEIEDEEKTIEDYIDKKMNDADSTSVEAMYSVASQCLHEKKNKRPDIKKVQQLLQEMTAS

[4] = Homo sapiens, PBMC, read-out: R848-induced TNFa PBMC IC50 (nM)
[5] = human PBMC, absence of serum, read-out: R848-induced TNFa PBMC IC50

C[C@@H]1[C@H](F)C(=O)N[C@@H]1COc1nccc2cc(C(N)=O)c(OC3CC3)cc12 [Example 281, 7-(cyclopropyloxy)-1-{[(2S,3S,4S)-4-fluoro-3-methyl-5-oxopyrrolidin-2-yl]methoxy}isoquinoline-6-carboxamide]
IC50 [1, 4]: 127 nM

COc1cc2c(OC[C@H]3NC(=O)[C@H]4C3[C@H]4CF)nccc2cc1C(N)=O (stereo in doubt) [Example 303, 1-(((1S,2S,5S,6R)-6-(fluoromethyl)-4-oxo-3-azabicyclo[3.1.0]hexan-2-yl)methoxy)-7-methoxyisoquinoline-6-carboxamide]
IC50 [1, 5]: 6050 nM

CC(C)Oc1cc2c(OC[C@@H]3CCC(=O)N3)nccc2cc1C(N)=O [Example 26, 1-{[(2S)-5-oxopyrrolidin-2-yl]methoxy}-7-(propan-2-yloxy)isoquinoline-6-carboxamide]
days with significant reduction of hind paw swelling in CIA rats (t-test, p<0.05 vs. vehicle) ([2]; 30 mg/kg PO, BID, therapeutic treatment for 8 days): Day 2-Day 8
days with significant reduction of hind paw swelling in CIA rats (t-test, p<0.05 vs. vehicle) ([2]; 100 mg/kg PO, BID, therapeutic treatment for 8 days): Day 1-Day 8 (end)
hind paw swelling in CIA rats ([2]; 10 mg/kg PO, BID): transiently significant reduction in hind paw swelling only on Day 5 and Day 6 post treatment
hind paw swelling in CIA rats ([2]; therapeutic treatment BID daily for 8 days, t-test p<0.05 vs. vehicle): reduced the hind paw swelling in CIA rats significantly

COc1cc2c(OC[C@H]3NC(=O)[C@@H]4[C@@H](CF)[C@@H]43)nccc2cc1C(N)=O [Example 304, 1-{[(1R,2S,5S)-6-(fluoromethyl)-4-oxo-3-azabicyclo[3.1.0]hex-2-yl]methoxy}-7-methoxyisoquinoline-6-carboxamide]
IC50 [1, 5]: 35 nM

COc1cc2c(OC[C@@H]3C[C@](F)(CC(F)(F)F)C(=O)N3)cccc2cc1C(N)=O [Example 241, 5-{[(2S,4S)-4-fluoro-5-oxo-4-(2,2,2-trifluoroethyl)pyrrolidin-2-yl]methoxy}-3-methoxynaphthalene-2-carboxamide]
IC50 [3]: 161 nM

COc1cc2c(OC[C@@H]3C[C@@](F)(CC(F)(F)F)C(=O)N3)cccc2cc1C(N)=O [Example 240, 5-{[(2S,4R)-4-fluoro-5-oxo-4-(2,2,2-trifluoroethyl)pyrrolidin-2-yl]methoxy}-3-methoxynaphthalene-2-carboxamide]
IC50 [3]: 2.3 nM

Cc1ccc(-n2nc(C(C)(C)C)cc2NC(=O)Nc2ccc(OCCN3CCOCC3)c3ccccc23)cc1 [BIRB796, reference compound]
days with significant reduction of hind paw swelling in CIA rats (t-test, p<0.05 vs. vehicle) ([2]; 30 mg/kg PO, QD, positive control (p38 inhibitor)): Day 1-Day 8

COc1cc2c(OC[C@H]3C[C@@H](F)C(=O)N3)nccc2cc1C(N)=O [Example 275, 1-{[(2R,4R)-4-fluoro-5-oxopyrrolidin-2-yl]methoxy}-7-methoxyisoquinoline-6-carboxamide]
IC50 [1, 4]: 5140 nM
IC50 [3]: 119 nM
